The source made the active and inactive calls. No cut-off for these calls is given here.
Assays:
NRK-49F [1] = test: Inhibition of TGF-beta1-induced total collagen accumulation in rat NRK-49F cells at 10 uM; assay type: functional
RAW264.7 = test: Inhibition of LPS-induced TNFalpha production in mouse RAW264.7 cells 10 uM; assay type: functional
NRK-49F [2] = test: Inhibition of TGF-beta1-induced total collagen accumulation in rat NRK-49F cells; assay type: functional, cell-based
NRK-49F [3] = test: Inhibition of TGF-beta1-induced total collagen accumulation in rat NRK-49F cells at 3 uM by picro-sirius red staining method; assay type: functional, cell-based
NRK-49F [4] = test: Inhibition of TGF-beta1-induced total collagen accumulation in rat NRK-49F cells at 5 uM by picro-sirius red staining method; assay type: functional, cell-based
Mus musculus [5] = test: Anti-fibrotic activity in mouse bleomycin-induced lung fibrosis model assessed as cumulative proportion of survival at 20 mg/kg/day, ip before bleomycin injection measured on day 28; assay type: functional; details: 672 h, route intraperitoneal
Mus musculus [6] = test: Anti-fibrotic activity in mouse bleomycin-induced lung fibrosis model assessed as slowing of body weight loss at 20 mg/kg/day, ip before bleomycin injection measured on day 28; assay type: functional, organism-based
Mus musculus [7] = test: Anti-fibrotic activity in mouse bleomycin-induced lung fibrosis model assessed as reduction in leukocytes in bronchoalveolar lavage fluid at 20 mg/kg/day, ip before bleomycin injection; assay type: functional; details: route intraperitoneal
Mus musculus [8] = test: Anti-fibrotic activity in mouse bleomycin-induced lung fibrosis model assessed as reduction in lymphocytes in bronchoalveolar lavage fluid at 20 mg/kg/day, ip before bleomycin injection; assay type: functional; details: route intraperitoneal
Mus musculus [9] = test: Anti-fibrotic activity in mouse bleomycin-induced lung fibrosis model assessed as reduction in neutrophils in bronchoalveolar lavage fluid at 20 mg/kg/day, ip before bleomycin injection; assay type: functional; details: route intraperitoneal
Mus musculus [10] = test: Anti-fibrotic activity in mouse bleomycin-induced lung fibrosis model assessed as reduction in hydroxyproline level at 20 mg/kg/day, ip before bleomycin injection; assay type: functional
Mus musculus [11] = test: Anti-fibrotic activity in mouse bleomycin-induced lung fibrosis model assessed as reduction in inflammatory infiltrate level at 20 mg/kg/day, ip before bleomycin injection by H and E staining; assay type: functional, organism-based
Mus musculus [12] = test: Anti-fibrotic activity in mouse bleomycin-induced lung fibrosis model assessed as reduction in lung injury at 20 mg/kg/day, ip before bleomycin injection by H and E staining; assay type: functional, organism-based
Mus musculus [13] = test: Anti-fibrotic activity in mouse bleomycin-induced lung fibrosis model assessed as reduction of lung collagen deposition at 20 mg/kg/day, ip before bleomycin injection by H and E staining; assay type: functional, organism-based

`CCc1ccc(NC(=O)c2c[nH]c3ccc(C(C)(C)C)cc3c2=O)cc1` gave an inhibition at 10 µM (NRK-49F [1]) of 19.4%.

In the case of `CC(C)(C)c1ccc2[nH]cc(C(=O)Nc3ccc(Cl)cc3)c(=O)c2c1`, the inhibition at 10 µM (NRK-49F [1]) is reported as 27.2%.

`Cc1ccc2[nH]cc(C(=O)Nc3cc(O)c(C(C)(C)C)cc3C(C)(C)C)c(=O)c2c1` gave an inhibition at 10 µM (NRK-49F [1]) of 49.9%.

In the case of `CC(C)(C)c1ccc2[nH]cc(C(=O)Nc3cc(O)c(C(C)(C)C)cc3C(C)(C)C)c(=O)c2c1`, the inhibition at 10 µM (NRK-49F [1]) is reported as 73.8% and the “inhibition (INH)” value (RAW264.7) is reported as 45.7%.

For `COc1cc(NC(=O)c2c[nH]c3ccc(C(C)(C)C)cc3c2=O)cc(OC)c1OC`, the inhibition at 10 µM (NRK-49F [1]) was 77.1%, the “inhibition (INH)” value (RAW264.7) was 70.8% and the IC50 (NRK-49F [2]) was 2500 nM. The inhibition (NRK-49F [3]) was “Active”, the inhibition (NRK-49F [4]) was “Active” and the survival at 20 mg/kg/day (Mus musculus [5]) was 72.2%. For the same compound, the Activity (Mus musculus [6]) was “Active”, the inhibition in vivo at 20 mg/kg/day (Mus musculus [7]) was 54.8% and the inhibition in vivo at 20 mg/kg/day (Mus musculus [8]) was 15.8%. The inhibition in vivo at 20 mg/kg/day (Mus musculus [9]) was 57.7%, the inhibition in vivo at 20 mg/kg/day (Mus musculus [10]; route intraperitoneal) was 52.4% and the inhibition (Mus musculus [11]) was “Active”. For the same compound, the inhibition (Mus musculus [12]) was “Active” and the inhibition (Mus musculus [13]) was “Active”.

For `CC(C)(C)c1cc(C(C)(C)C)c(NC(=O)c2c[nH]c3ccc(F)cc3c2=O)cc1O`, the inhibition at 10 µM (NRK-49F [1]) was 51.6%.

`CC(C)(C)c1ccc(NC(=O)c2cn(CCCN3CCOCC3)c3ccc(C(C)(C)C)cc3c2=O)cc1` gave an inhibition at 10 µM (NRK-49F [1]) of 30.2%.

For `CN1CCN(CCn2cc(C(=O)Nc3ccc(C(C)(C)C)cc3)c(=O)c3cc(C(C)(C)C)ccc32)CC1`, the inhibition at 10 µM (NRK-49F [1]) was 46.6%.

For `CC(C)(C)c1ccc2[nH]cc(C(=O)Nc3ccccc3C(C)(C)C)c(=O)c2c1`, the inhibition at 10 µM (NRK-49F [1]) was 54.3%.

In the case of `CC(C)(C)c1ccc(NC(=O)c2cn(Cc3ccccc3)c3ccc(C(C)(C)C)cc3c2=O)cc1`, the inhibition at 10 µM (NRK-49F [1]) is reported as 9.1%.

`COc1ccc(NC(=O)c2c[nH]c3ccc(C(C)(C)C)cc3c2=O)cc1OC` showed an inhibition at 10 µM (NRK-49F [1]) of 32.6%.

With `CC(C)(C)c1ccc(NC(=O)c2cn(CCN3CCOCC3)c3ccc(C(C)(C)C)cc3c2=O)cc1` the inhibition at 10 µM (NRK-49F [1]) was 71.1%, the “inhibition (INH)” value (RAW264.7) was 69.5% and the IC50 (NRK-49F [2]) was 2300 nM. For the same compound, the inhibition (NRK-49F [3]) was “Active” and the inhibition (NRK-49F [4]) was “Active”.

`CC(C)(C)c1ccc2[nH]cc(C(=O)Nc3cccc(Cl)c3)c(=O)c2c1` gave an inhibition at 10 µM (NRK-49F [1]) of 30.5%.

Work on `CN1CCN(CCCn2cc(C(=O)Nc3ccc(C(C)(C)C)cc3)c(=O)c3cc(C(C)(C)C)ccc32)CC1` yielded an inhibition at 10 µM (NRK-49F [1]) of 52.1%.

With `CC(C)(C)c1ccc2[nH]cc(C(=O)Nc3ccc(F)cc3)c(=O)c2c1` the inhibition at 10 µM (NRK-49F [1]) was 23.5%.

With `CC(C)(C)c1cc(C(C)(C)C)c(NC(=O)c2c[nH]c3ccccc3c2=O)cc1O` [IVACAFTOR] the inhibition at 10 µM (NRK-49F [1]) was 64.7%, the “inhibition (INH)” value (RAW264.7) was 63.2% and the IC50 (NRK-49F [2]) was 4000 nM. For the same compound, the inhibition (Mus musculus [11]) was “inactive”, the inhibition (Mus musculus [12]) was “inactive” and the inhibition (Mus musculus [13]) was “inactive”.

`Cc1ccc(NC(=O)c2c[nH]c3ccc(C(C)(C)C)cc3c2=O)cc1` gave an inhibition at 10 µM (NRK-49F [1]) of 28.9%.

In the case of `CCCCn1cc(C(=O)Nc2ccc(C(C)(C)C)cc2)c(=O)c2cc(C(C)(C)C)ccc21`, the inhibition at 10 µM (NRK-49F [1]) is reported as 16.9%.

For `COc1ccccc1NC(=O)c1c[nH]c2ccc(C(C)(C)C)cc2c1=O`, the inhibition at 10 µM (NRK-49F [1]) was 47.9%.

With `CCc1ccc2[nH]cc(C(=O)Nc3cc(O)c(C(C)(C)C)cc3C(C)(C)C)c(=O)c2c1` the inhibition at 10 µM (NRK-49F [1]) was 55.9%.

`CC(C)(C)c1ccc2[nH]cc(C(=O)Nc3ccc(C(C)(C)C)c(N)c3)c(=O)c2c1` was tested, and the inhibition at 10 µM (NRK-49F [1]) was 67.9%, the “inhibition (INH)” value (RAW264.7) was 71.3% and the IC50 (NRK-49F [2]) was 4100 nM. For the same compound, the inhibition (NRK-49F [3]) was “Active”.

With `COc1ccc(NC(=O)c2c[nH]c3ccc(C(C)(C)C)cc3c2=O)cc1` the inhibition at 10 µM (NRK-49F [1]) was 23.5%.

In the case of `CC(C)(C)c1ccc(NC(=O)c2cn(CCN3CCCCC3)c3ccc(C(C)(C)C)cc3c2=O)cc1`, the inhibition at 10 µM (NRK-49F [1]) is reported as 30.1%.

In the case of `CC(C)(C)c1cccc(NC(=O)c2c[nH]c3ccc(C(C)(C)C)cc3c2=O)c1`, the inhibition at 10 µM (NRK-49F [1]) is reported as 44.8%.

`CC(C)(C)c1ccc(NC(=O)c2cn(CCCl)c3ccc(C(C)(C)C)cc3c2=O)cc1` gave an inhibition at 10 µM (NRK-49F [1]) of 35.8%.

With `CC(C)(C)c1ccc(NC(=O)c2cn(CCN3CCCC3)c3ccc(C(C)(C)C)cc3c2=O)cc1` the inhibition at 10 µM (NRK-49F [1]) was 44.8%.

`CC(C)(C)c1ccc2[nH]cc(C(=O)Nc3ccc(C(C)(C)C)c([N+](=O)[O-])c3)c(=O)c2c1` was tested, and the inhibition at 10 µM (NRK-49F [1]) was 75.7% and the “inhibition (INH)” value (RAW264.7) was 47.7%.

For `CC(C)(C)c1ccc(NC(=O)c2c[nH]c3ccc(C(C)(C)C)cc3c2=O)cc1`, the inhibition at 10 µM (NRK-49F [1]) was 81%, the “inhibition (INH)” value (RAW264.7) was 61.6% and the IC50 (NRK-49F [2]) was 2000 nM. For the same compound, the inhibition (NRK-49F [3]) was “Active”, the survival at 20 mg/kg/day (Mus musculus [5]) was 83.3% and the Activity (Mus musculus [6]) was “Active”. For the same compound, the inhibition in vivo at 20 mg/kg/day (Mus musculus [7]) was 40.3%, the inhibition in vivo at 20 mg/kg/day (Mus musculus [8]) was 33.6% and the inhibition in vivo at 20 mg/kg/day (Mus musculus [9]) was 39.7%. For the same compound, the inhibition (Mus musculus [10]) was “Active”, the inhibition (Mus musculus [11]) was “inactive” and the inhibition (Mus musculus [12]) was “inactive”. The inhibition (Mus musculus [13]) was “inactive”.

`COc1ccc2[nH]cc(C(=O)Nc3cc(O)c(C(C)(C)C)cc3C(C)(C)C)c(=O)c2c1` gave an inhibition at 10 µM (NRK-49F [1]) of 53.1%.

`CCn1cc(C(=O)Nc2ccc(C(C)(C)C)cc2)c(=O)c2cc(C(C)(C)C)ccc21` showed an inhibition at 10 µM (NRK-49F [1]) of 34.3%.

Source: ChEMBL document CHEMBL3351704, “Synthesis and biological evaluation of 4-oxoquinoline-3-carboxamides derivatives as potent anti-fibrosis agents” (Bioorg Med Chem Lett, 2014)
